# Source: patent US20210205329A1 (The University of North Carolina at Chapel Hill, priority 2018, published 2021)
# Where “and” joins values, the source holds several entries; their conditions need not be identical. Identical values can stand only once.
# Experiments:
# RAW264.7 cells = test: Non-activated RAW264.7 cells in the absence of LPS (immunoblotting); type: cell-based, mouse; settings: 1 μM, 24 hrs
# Protocol: FIGS. 3A and 3B depict neurosteroids targeting the activated TLR4 signal by inhibiting TLR4/MD-2 binding. (FIG. 3A) 3α,5α-THP and pregnenolone specifically target the activated TLR4 signal. RAW264.7 cells untreated (CTL) or treated with 3α,5α-THP (THP; 1 μM) or pregnenolone (Preg; 1 μM) were harvested after 24 hrs. […] (FIG. 3B) Neurosteroids inhibit TLR4 signal activation in RAW264.7 ceils by blocking TLR4/MD-2 binding. RAW246.7 cells were treated with IPS (1 μg/ml) without or with 3α,5α-THP (THP; 1.0 μM) or pregnenolone (Preg; 1.0 μM) and protein extracts collected at 24 hrs post-treatment were immunoprecipitated (IP) with antibody to TLR4 or TLR2. The precipitates were immunoblotted (IB) with MD-2 antibody. Normal IgG was used as control. MD-2 co-precipitated with TLR4, but not normal IgG. […] HMGB1 co-precipitated with both TLR4 and TLR2 and its levels were not altered by the neurosteroids.
# Immunoblotting. […] The total protein was determined by the bicinchoninic acid assay (BCA, Thermo Fisher Scientific, Waltham, Mass., USA, Cat. #23228 and Cat. #1859078). […] Quantitation was by densitometric scanning with a Bio-Rad GS-700 imaging densitometer. […] Each densitometric measurement was divided by the corresponding β-Actin densitometric measurement and the results [n=5/group] are expressed as the mean β-Actin-adjusted densitometric units±SEM. […]
# [1] = tested on: innately activated TLR4 signal in P rat VTA; test: TLR4 signaling in P rat VTA after systemic neurosteroid (immunoblot, MCP-1 ELISA); type: in vivo; settings: 45 minutes
# Protocol: Immunoblotting for whole VTA lysates was done as previously described (Carlson et al, 2013). Briefly, VTA micropunches (1 mm thick) were lysed with CelLytic MT (dialyzable mild detergent, bicine, and 150 mM NaCl; Sigma-Aldrich) and protease and phosphatase inhibitor cocktail according to the manufacturer's instructions. Total protein was determined by the BCA assay. The proteins (10 μg/lane) were resolved by NuPAGE™ 4-12% Bis-Tris Midi Protein Gel (Thermo Fisher, Waltham, Mass.) electrophoresis and transferred using the iBlot 2 Dry Blotting System (Thermo Fisher, Waltham, Mass.). Blots were then exposed to an antibody for β-actin for normalization. Proteins were detected with enhanced chemilumenescence (GE Healthcare, Amersham, UK). Membranes were exposed to film under non-saturating conditions. Densitometric analysis was conducted using NIH Image 1.57.
# Animals. Selectively bred, but alcohol naïve Alcohol-preferring (P) rats (male, 3-4 months old; 250-550 g) (n=7-9/group) were obtained from the Alcohol Research Center, Indiana University School of Medicine, Animals were double housed in Plexiglas cages containing corn cob bedding and food and water was available ad libitum. The colony room was maintained on a normal 12 hr light-dark cycle (light onset at 0700 hr). Procedures followed National Institutes of Health Guidelines under UNC institutional Animal Care and Use Committee approved protocols at University of North Carolina School of Medicine. Rats were habituated to handling for 7 days prior to administration of 3α,5α-THP (15 mg/kg, IP), pregnenolone (75 mg/kg, IP), 3α,5α-THDOC (15 mg/kg, IP), or vehicle (45% w/v 2-hydroxypropyl-p-cyclodextrin) and returned to their home cage. Rats were sacrificed after 45 minutes and the brain was removed and frozen at −80° C. until VTA micropunches were collected from 1 mm cryostat brain sections. This time point was selected because 3α,5α-THP is rapidly metabolized in vivo (Purdy et al, 1990), but has behavioral and pharmacological activity at this time point (Crawley et al, 1986).
# ELISA. Brain tissue micropunches were lysed with Cellyte MT and the extracts were assayed for protein content by the BCA procedure (Pierce) and for MCP-1 using the rat MCP-1 ELISA kit (Raybiotech—ERC-MCP-1-CL; Norcross, Ga., USA) or for fracktalkine using the rat fractalkine ELISA kit (Raybiotech—ERC-CX3CL1-CL; Norcross, Ga., USA) as per manufacturer's instructions.
# Since the neurosteroids inhibited the TLR4 activation signal in cultured macrophage cells, experiments were conducted to determine whether this also occurs in the brain. Selectively bred P rats that have an innately activated TLR4 signal in the VTA (Liu J, et al. (2011). Proc Natl Acad Sci USA 108(11): 4465-4470), were administered 3α,5α-THP (15 mg/kg, IP) or pregnenolone (75 mg/kg, IP), sacrificed after 45 minutes and examined for TLR4 signaling using parallel measures. […] 3α,5α-THP administration reduced the levels of MCP-1 by 20±9% (p<0.05), TRAF6 by 19±3% (p<0.0001), and CRF by 28±9% (p<0.01), with no effect on TLR4 protein expression (FIG. 4A). Pregnenolone administration had no effect on TRAF6, CRF, or TLR4.
compound,measurement,setting,value
"CC(=O)[C@H]1CC[C@H]2[C@@H]3CC[C@H]4C[C@H](O)CC[C@]4(C)[C@H]3CC[C@]12C [3α,5α-THP, (3α,5α)3-hydroxypregnan-20-one]","expression of pTAK1, TRAF6, and MCP1 in non-activated cells",RAW264.7 cells,failed to inhibit
same,effect on TLR4 protein expression in VTA,"[1]; 15 mg/kg IP, P rats",no effect
same,reduction of CRF levels in VTA,"[1]; 15 mg/kg IP, male P rats",28±9% and ~30%
same,reduction of TRAF6 levels in VTA,"[1]; 15 mg/kg IP, male P rats",19±3% and ~20%
same,reduction of MCP-1 levels in VTA,"[1]; 15 mg/kg IP, male P rats, ELISA",20±9% and ~20%
CC(=O)[C@H]1CC[C@H]2[C@@H]3CC=C4C[C@@H](O)CC[C@]4(C)[C@H]3CC[C@]12C [pregnenolone],"expression of pTAK1, TRAF6, and MCP1 in non-activated cells",RAW264.7 cells,failed to inhibit
same,effect on CRF in VTA,"[1]; 75 mg/kg IP, P rats",no effect
same,effect on TLR4 in VTA,"[1]; 75 mg/kg IP, P rats",no effect
same,effect on TRAF6 in VTA,"[1]; 75 mg/kg IP, P rats",no effect
